These molecules were tested against T1, S-ribosylhomocysteine lyase (Vibrio harveyi, UniProt B0LUE4) (assay: AI-2 quorum sensing modulators, luminescence, confirmation, dose retest, Vibrio harveyi (AID 2724)).
T1 sequence (B0LUE4 whole entry): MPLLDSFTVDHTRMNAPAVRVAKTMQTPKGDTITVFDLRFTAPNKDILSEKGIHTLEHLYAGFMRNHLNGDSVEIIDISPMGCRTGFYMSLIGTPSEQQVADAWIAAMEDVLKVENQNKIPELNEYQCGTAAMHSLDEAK
In the case of `C=Cn1c(C(=O)O)ccc1-c1ccc(CC)cc1`, the EC50 is reported as 2070 nM. Molecule `COc1cc(NC(=O)CN2C(=O)NC(c3ccccc3)(c3ccccc3)C2=O)cc(OC)c1` [MLS001176525] has an EC50 of 1570 nM. Work on `CCc1ccc(S(=O)(=O)Nc2ccc(Br)cn2)cc1` [MLS001211346] yielded an EC50 of 3640 nM. In the case of `CCCc1ccc(S(=O)(=O)N(C)S(=O)(=O)c2ccc(F)cc2)cc1` [N-(4-fluorophenyl)sulfonyl-N-methyl-4-propylbenzenesulfonamide], the EC50 is reported as 1620 nM. In the case of `CN(C)S(=O)(=O)c1ccc(NC(=S)NC(=O)Cc2ccccc2)cc1` [N-[[4-(dimethylsulfamoyl)phenyl]carbamothioyl]-2-phenyl-ethanamide], the EC50 is reported as > 160000 nM. Work on `Cc1cccc(NS(=O)(=O)c2ccc(Oc3ccccc3)cc2)n1` [SMR000071466] yielded an EC50 of 2560 nM. `Cn1cnc(S(=O)(=O)Nc2ccc(OC(F)(F)F)cc2)c1` [SMR000314513] was tested, and the EC50 was 4390 nM.

Reference: BindingDB's records for doi:10.7270/Q2Z036M0 (Broad Institute, 2010)
